This note sets out measurements from US9464110B2, “Acyl dipeptide derivative” (AJINOMOTO CO., INC., priority 2012, dated 2016).

One assay relates to Propionibacterium acnes. In words: minimal growth inhibitory concentration (MIC) test, agar dilution. In kind it is cell-based. The settings on record: Cutibacterium acnes; GAM agar medium, 35° C., 48 hr anaerobic culture; read-out: minimal growth inhibitory concentration against Propionibacterium acnes. As to the method: (§1) The compound of Synthetic Example 1 was subjected to a minimal growth inhibitory concentration (MIC) test against Propionibacterium acnes (P. acnes) and Trichophyton mentagrophytes (T. mentagrophytes). The test method is shown below. (1) Preparation of Test Bacterial Culture Propionibacterium acnes: Anaerobically cultured in a GAM agar medium at 35° C. for 48 hr. A part thereof was transplanted into a GAM bouillon medium, and anaerobically cultured at 35° C. for 24 hr. The culture medium was diluted with GAM bouillon medium to adjust to about 10^6 cells/mL and used as a test bacterial culture. Trichophyton mentagrophytes: Test bacteria were cultured in a Sabouraud glucose agar medium at 25° C. for 7-14 days, spore and hypha pick were scraped with a platinum loop, suspended in polysorbate 80 0.05% sterile saline and ground in a homogenizer. The solution was filtered through sterile gauze folded in four, and diluted with polysorbate 80 0.05% sterile saline to adjust to about 10^6 cells/mL and used as a test bacterial culture. (2) Preparation of Antimicrobial Agent Dilution Solution A sample was diluted with sterile purified water to prepare a 100000-1000 μg (active ingredient)/mL dilution series. (3) Preparation of Antimicrobial Agent-Added Agar Medium The agar medium was dispensed by 9.0 mL into a test tube and, after autoclave sterilization, and incubated in a molten state at 50° C. […]

The subject of assay [1] is Trichophyton mentagrophytes. The assay is described as above. In kind it is cell-based. The note with it: 168 h, Sabouraud glucose agar medium, 25° C., 7 days, read-out: minimal growth inhibitory concentration against Trichophyton mentagrophytes. On the procedure:
as §1

In brackets after ≈: the same amount, converted by molar mass. Where a SMILES comes first, the peptide text is derived from it. The star is where a group is joined. Decanoyl = CCCCCCCCCC(=O)*

Consider `CCCCCCCCCC(=O)N1CCC[C@H]1C(=O)N1CCC[C@H]1C(=O)O` [Synthetic Example 1, decanoyl prolylproline] (Decanoyl-Pro-Pro-OH), for which the values for the MIC (in the assay on Propionibacterium acnes; in assay [1]) were 2000 to 3000 µg/mL (≈ 5.46 to 8.19 mM) and 1000 to 1500 µg/mL (≈ 2.73 to 4.09 mM), respectively.
